# Data taken from paper PMC8217170, “Phase Ib dose-escalation study of the hypoxia-modifier Myo-inositol trispyrophosphate in patients with hepatopancreatobiliary tumors” (Nature Communications, 2021).
# Several values for one entry are separate records, joined by “and”; a condition that tells them apart may be missing. Equal values may be shown once. Read-outs that look alike come from different tables or passages of the source.
# Tests used:
# [1] = design: method as in Swissmedic special application Nr. SBH12-1310; conditions: one cancer patient, monotherapy 5600 mg/m2 once a week for 5 weeks; ref Swissmedic special application Nr. SBH12-1310; cited from earlier work
# [2] = tested on: pancreatic carcinoma; design: method as in ref 15 (supplementary references); conditions: ref 15 (supplementary references), cited from earlier work
# [3] = tested on: patients with PDAC, CRLM, CCA and HCC; test: Progression free and overall survival; format: in vivo, human; conditions: for Follow up from study start / Survival status: individual patients; for Survival status: per 31st of December 2018
# Description: Ad hoc outcomes consisted of assessment of overall survival of patients in regard to tumor type and cohort as well as histological assessment of hypoxia markers in tumor tissue of selected patients.
# Cohort size was based on the traditional 3 + 3 dose-escalation scheme without formal power or sample size calculation. Data are summarized with descriptive statistics using medians and interquartile ranges (IQRs) as indicated. Pearson’s coefficient was used to test for correlation between numerical variables, and Mann–Whitney U or Kruskal–Wallis tests for differences in continuous variables among groups. Kaplan–Meier curves and the Mantel–Cox log rank test were used for survival analyses. No adjustment for multiple testing was performed.
smiles,measurement,setting,value
"O=P1(O)OC2C3OP(=O)(O)OP(=O)(O)OC3C3OP(=O)(O)OP(=O)(O)OC3C2OP(=O)(O)O1 (stereo not drawn) [ITPP, Myo-inositol trispyrophosphate]",Effect of the drug on the disease,[1],No effect
same,Survival,"[2]; ITPP combined with half the usual dose of gemcitabine, all animals",> 200 days
same,Survival,[2]; ITPP treatment alone,93 days
same,Median OS from start of ITPP infusions,[3]; CCA,302 days
same,Median progression free survival (PFS),[3]; CCA,158 days
same,Median OS from start of ITPP infusions,[3]; CRLM,340 days
same,Median progression free survival (PFS),[3]; CRLM,23 days
same,Median OS from start of ITPP infusions,[3]; HCC,684 days
same,Median progression free survival (PFS),[3]; HCC,345 days
same,Median OS from start of ITPP infusions,[3]; PDAC,165 days
same,Median progression free survival (PFS),[3]; PDAC,32 days
same,Follow up from study start,[3]; cohort 1 (1866 mg/m2),16 days and 464 days and 159 days and 398 days
same,Survival status,"[3]; cohort 1, 1866 mg/m2",Dead
same,Follow up from study start,[3]; cohort 2 (3732 mg/m2),783 days and 188 days and 158 days
same,Survival status,"[3]; cohort 2, 3732 mg/m2",Dead
same,Follow up from study start,[3]; cohort 3 (5600 mg/m2),159 days and 171 days and 206 days
same,Survival status,"[3]; cohort 3, 5600 mg/m2",Dead
same,Follow up from study start,[3]; cohort 4 (7000 mg/m2),193 days and 219 days and 684 days and 10 days
same,Survival status,"[3]; cohort 4, 7000 mg/m2",Dead
same,Follow up from study start,[3]; cohort 5 (8750 mg/m2),196 days and 202 days and 68 days
same,Survival status,"[3]; cohort 5, 8750 mg/m2",Dead
same,Follow up from study start,[3]; cohort 6 (10500 mg/m2),394 days and 510 days and 500 days and 301 days
same,Survival status,"[3]; cohort 6, 10500 mg/m2",Dead and Alive
same,Follow up from study start,[3]; cohort 7 (12390 mg/m2),87 days and 380 days and 392 days
same,Survival status,"[3]; cohort 7, 12390 mg/m2",Dead and Alive
same,Follow up from study start,[3]; cohort 8 (14500 mg/m2),43 days and 73 days and 266 days and 206 days
same,Survival status,"[3]; cohort 8, 14500 mg/m2",Dead and Alive
same,Overall survival,"[3]; patients with a lowering of PECAM1/CD31 under ITPP, p = 0.36",380 days
same,Overall survival,"[3]; patients with a lowering of VEGFA under ITPP, p = 0.053",398 days
same,Overall survival,[3]; patients without lowering of PECAM1/CD31 under ITPP,171 days
same,Overall survival,[3]; patients without lowering of VEGFA under ITPP,196 days
same,Median OS from start of ITPP infusions,[3]; whole patient population,206 days
same,Median progression free survival (PFS),[3]; whole patient population,48 days
